Where two headings read alike, the source gives them in different places.
Experiments:
Assay in all cases: MIC of compounds alone and combined with antibacterials, broth microdilution (CLSI)
Type in all cases: cell-based
[1] = tested on: Citrobacter freundii (CFR) isolates; conditions: Citrobacter freundii, read-out: MIC
Method in brief: (§1)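 Broth microdilution in cation-adjusted Mueller-Hinton broth, inoculum 5.10^5 CFU/mL, 16-20 h at 35° C in ambient air, on genotyped isolates. Compound MIC, alone or with an antibacterial, taken visually as lowest concentration preventing growth; antibacterial MIC determined at each compound concentration.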

[2] = tested on: Klebsiella oxytoca (KOX) isolates; conditions: Klebsiella oxytoca, alone, read-out: MIC
Method in brief: as §1

[3] = tested on: Klebsiella pneumoniae (KPN) isolates; conditions: Klebsiella pneumoniae, read-out: MIC
Method in brief: as §1

[4] = tested on: Morganella morganii (MMO) isolates; conditions: Morganella morganii, read-out: MIC
Method in brief: as §1

[5] = tested on: Providencia rettgeri (PRE) isolates; conditions: Providencia rettgeri, read-out: MIC
Method in brief: as §1

Measured: MIC

O=C1N2CC(n3cccn3)=CC(C2)N1OC(F)(F)C(=O)[O-].[Li+] (stereo not drawn) [AF3]
32 µg/mL: [1]; CFR UFR146, alone | [1]; strain CFR UFR252, compound alone | [1]; strain CFR UFR253, compound alone | [1]; strain CFR UFR254, compound alone | [3]; KPN 140513, alone | [3]; KPN 190128, alone | [3]; KPN 190270, alone | [3]; KPN 700603, alone | [3]; KPN UFR24, alone | [3]; KPN UFR46, alone | [3]; KPN UFR65, alone | [3]; KPN UFR66, alone | [3]; KPN UFR67, alone | [3]; KPN UFR79, alone | [3]; KPN UFR80, alone | [3]; KPN UFR215, alone | [3]; strain KPN 140347, compound alone | [3]; strain KPN UFR229O, compound alone | [4]; MMO 200321, alone | [4]; MMO UFR144, alone | [4]; MMO UFR241, alone | [4]; MMO UFR242, alone | [4]; MMO UFR245, alone | [4]; MMO UFR246, alone | [5]; strain PRE UFR97, compound alone | [5]; strain PRE UFR236, compound alone
16 µg/mL: [1]; CFR UFR10, alone | [1]; CFR UFR250, alone | [1]; strain CFR UFR148, compound alone | [2]; KOX UFR173 | [3]; BAA1898, KPN BAA-1898, alone | [3]; KPN 6299, alone | [3]; KPN 110376, alone | [3]; KPN 121206, alone | [3]; KPN 190425, alone | [3]; KPN 260251, alone | [3]; KPN UFR22_O, alone | [3]; KPN UFR27, alone | [3]; KPN UFR28, alone | [3]; KPN UFR42, alone | [3]; KPN UFR68, alone | [3]; KPN UFR81, alone | [3]; KPN UFR219, alone | [3]; strain KPN UFR162, compound alone | [3]; strain KPN UFR163, compound alone | [3]; strain KPN UFR164, compound alone | [3]; strain KPN UFR165, compound alone | [3]; strain KPN UFR168, compound alone | [3]; strain KPN UFR170, compound alone | [4]; MMO UFR247, alone | [5]; PRE UFR99, alone
8 µg/mL: [1]; CFR UFR37, alone | [1]; CFR UFR248, alone | [1]; CFR UFR249, alone | [1]; strain CFR UFR251, compound alone | [2]; KOX UFR223 | [2]; KOX UFR224 | [3]; KPN 131119, alone | [3]; KPN ARA, alone | [3]; KPN LIB, alone | [3]; KPN UFR23, alone | [3]; KPN UFR25, alone | [3]; KPN UFR43, alone | [3]; KPN UFR53, alone | [3]; KPN UFR77, alone | [3]; KPN UFR217, alone | [3]; KPN UFR222, alone | [3]; strain KPN UFR171, compound alone | [3]; strain KPN UFR172, compound alone
4 µg/mL: [1]; strain CFR UFR147, compound alone | [3]; KPN 160143, alone | [3]; KPN 190551, alone | [3]; KPN 200047, alone | [3]; KPN 200327, alone | [3]; KPN 260376, alone | [3]; KPN UFR216, alone | [3]; KPN UFR218, alone | [3]; KPN UFR220, alone | [3]; KPN UFR221, alone | [5]; strain PRE UFR96, compound alone
> 32 µg/mL: [1]; CFR UFR11, alone | [1]; CFR UFR83, alone | [2]; KOX UFR21 | [3]; KPN 260252, alone | [3]; KPN 270077, alone | [3]; KPN UFR33, alone | [3]; KPN UFR76, alone | [3]; KPN UFR78, alone | [3]; KPN UFR227O, alone | [3]; strain KPN UFR166, compound alone | [3]; strain KPN UFR167, compound alone | [3]; strain KPN UFR169, compound alone | [4]; MMO UFR240, alone | [4]; MMO UFR243, alone | [4]; MMO UFR244, alone | [4]; strain MMO UFR145, compound alone

— patent US20200017495A1, “NOVEL HETEROCYCLIC COMPOUNDS AND THEIR USE IN PREVENTING OR TREATING BACTERIAL INFECTIONS” (priority 2017, published 2020)
